Values after ≈ are worked out from the molar mass of the structure shown. Blank lines part the entries; values can stand above or below the molecule they belong to.
Assays:
[1] = tested on: Plasmodium falciparum; test: Plasmodium falciparum Assay; assay type: cell-based; conditions: Plasmodium falciparum; 3-H-hypoxanthine incorporation, 48 hours; read-out: Plasmodium IC50 ± SD
Summary of the method: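 Parasitized erythrocytes (~1% parasitemia, 5×10^8/ml) cultured 48 h in RPMI with test compound, with 3H-hypoxanthine added for the last 24 h. Growth inhibition read as 3H-hypoxanthine incorporation into parasite DNA by liquid scintillation; uninfected and untreated infected cultures run in parallel.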

[2] = tested on: Helicobacter pylori; test: Helicobacter species Assay (agar plate, MIC); assay type: cell-based; conditions: for MIC: Helicobacter pylori, 20 strains of H. pylori, agar plate, 72 hours, read-out: MIC; for No. strains inhibited/No. strains tested: at the MIC of the same line
Method: (§1) 20 strains of Helicobacter pylori were used in an agar plate assay. The compounds were incorporated in the agar plates at different concentrations as described in the examples and were then inoculated with different strains of Helicobacter pylori followed by incubation in a microaerophilic atmosphere at 37° C. for 72 hours. The number of colony-forming units (CFU) were counted after the incubation period. The MIC values were determined as the minimal concentration required to inhibit growth of the bacteria.
(§2) Stock solutions were made at a concentration of 1 mg/ml by dissolving 1 mg of each compound in 100 μl DMSO (dimethylsulfoxide) followed by addition of 900 μl of heat-inactivated fetal claf serum (HFCS). These stock solutions were diluted with HFCS to make solutions having the following concentrations: 320 μg/ml, 160 μg/ml, 80 μg/ml, 40 μg/ml and 20 μg/ml. Dilution rows were made with 3 ml aliquots in vials containing the compounds in the following final test concentrations: 16 μg/ml, 8 μg/ml, 4 μg/ml, 2 μg/ml and 1 μg/ml. As control was used DMSO-HFCS containing an amount of DMSO equal to the amount of test compound in the solution with 320 μg/ml compound.
as §1, with “Bacteria: 20” for “20”, “concentrations” for “concentrations as described in the examples”, “and then they” for “and”, “were” for “were then”, “incubation at” for “incubation in a”, “C. in” for “C. for”
as §2, with “concentrations: 2560 μg/ml, 1280 μg/ml, 640 μg/ml,” for “concentrations:”, “160 µg/ml and” for “160 μg/ml,”, “80” for “80 μg/ml, 40 μg/ml and 20”, “concentrations: 128 μg/ml, 64 μg/ml, 32 μg/ml, 12” for “concentrations: 16”, “8” for “8 μg/ml, 4 μg/ml, 2”, “and 4” for “and 1”
Bacteria: 20 strains of Helicobacter pylori were used in an agar plate assay. The same method as described above under Experiment A was employed and MIC values were determined.

[3] = tested on: TNF-α; test: TNF-α in lysate of stimulated human mononuclear cells (ELISA); assay type: cell-based; conditions: cells preincubated with compound, stimulated with SPAG or LPS
Method: Therefore, experiments were performed to examine the effect of Licochalcone A and SBC-35ma on secretion of TNF-α from the stimulated cells. These experiments included detection of the cytokines in the cell lysate by ELISA and staining of the intracellular cytokines by using monoclonal antibodies against these cytokines and cytokine receptors.

[4] = Preliminary 14 days oral toxicity study in rats; assay type: in vivo; conditions: highest dose level 1000 mg/kg/day
Method: A preliminary 14 days oral toxicity study in rats was carried out with 6 compounds. Observations included clinical signs, body weights, food intake, haematology, clinical chemistry and macroscopic pathology.

[5] = tested on: TNF-α; test: Intracellular TNF-α in human mononuclear cells (flow cytometry); assay type: cell-based; conditions: for % TNFα- producing cells: DMSO 10.1
Method: (§3) [table] Incubation condition: Cells and mitogen added at the same time and the compound solution added immediately after in polypropylene tubes and incubated at 37° C. in CO2 incubator overnight. The following day the cells and the supernatant were harvested for TNF-α determination. Incubation condition: Cells and mitogen added at the same time and the compound solution added immediately after in polypropylene tubes and incubated at 37° C. in CO2 incubator overnight. The following day the cells and the supernatant were harvested for TNF-α determination.

[6] = tested on: TNF-α; test: Extracellular TNF-α of human mononuclear cells (supernatant); assay type: cell-based; conditions: for inhibition at 3.125 µg/mL: compound 3.125 μg/ml; for inhibition at 6.25 µg/mL: compound 6.25 μg/ml; for inhibition at 12.5 µg/mL: compound 12.5 μg/ml
Method: as §3, with “Incubation” for “[table] Incubation”

IC50 [1]: 8.1 µM | MIC [2]: 32 µg/mL (≈ 112 µM)
Structure (SMILES): COc1cc(/C=C/C(=O)c2cccc(F)c2)cc(OC)c1 [PH136, 3′-fluoro-3,5-dimethoxychalcone]
growth of the strains of H. pylori (FIGS. 1 and 2) [2]: inhibited the growth of all the strains | No. strains inhibited/No. strains tested [2]: 15/20

Structure (SMILES): C=CCOc1ccc(C(=O)/C=C/c2cc(OC)cc(OC)c2)cc1 [SBC-35ma, 3,5-dimethoxy-4′-allyloxychalcone]
intracellular TNF-α in the cell lysate (ELISA) [3]: no intracellular TNF-α present | toxic effects [4]: No toxic effects

IC50 [1]: 8.7 µM | MIC [2]: 32 µg/mL (≈ 112 µM)
Structure (SMILES): COc1cc(/C=C/C(=O)c2ccccc2F)cc(OC)c1 [PH135, 2′-fluoro-3,5-dimethoxychalcone]
% TNF-α producing cells ([5]; 1b Experiment 1, LPS 0.5 μg/ml, compound 6.25 μg/ml, DMSO 13.8): 4.1% | % TNF-α producing cells ([5]; 1b Experiment 1, LPS 0.5 μg/ml, compound 12.5 μg/ml, DMSO 13.8): 2.3% | % TNF-α producing cells ([5]; 1b Experiment 1, LPS 0.5 μg/ml, compound 25.0 μg/ml, DMSO 13.8): 2.2% | % TNF-α producing cells ([5]; 1b Experiment 2, LPS 1 μg/ml, compound 3.125 μg/ml, DMSO 4.0): 4.3% | % TNF-α producing cells ([5]; 1b Experiment 2, LPS 1 μg/ml, compound 6.25 μg/ml, DMSO 4.0): 1.7% | % TNF-α producing cells ([5]; 1b Experiment 2, LPS 1 μg/ml, compound 12.5 μg/ml, DMSO 4.0): 2.0% | % TNFα- producing cells ([5]; 1b Experiment 3, LPS 1 μg/ml, compound 3.125 μg/ml): 1.7% | % TNFα- producing cells ([5]; 1b Experiment 3, LPS 1 μg/ml, compound 6.25 μg/ml): 1.2% | % TNFα- producing cells ([5]; 1b Experiment 3, LPS 1 μg/ml, compound 12.5 μg/ml): 1.0% | % TNF-α producing cells ([5]; 1b Experiment 4, LPS 1 μg/ml, compound 3.125 μg/ml, DMSO 14.6): 3.5% | % TNF-α producing cells ([5]; 1b Experiment 4, LPS 1 μg/ml, compound 6.25 μg/ml, DMSO 14.6): 2.1% | % TNF-α producing cells ([5]; 1b Experiment 4, LPS 1 μg/ml, compound 12.5 μg/ml, DMSO 14.6): 1.8% | inhibition at 6.25 µg/mL ([5]; Homo sapiens, 1b Experiment 1, LPS 0.5 μg/ml, compound 6.25 μg/ml, read-out: % inhibition): 70% | inhibition at 12.5 µg/mL ([5]; Homo sapiens, 1b Experiment 1, LPS 0.5 μg/ml, compound 12.5 μg/ml, read-out: % inhibition): 83% | inhibition at 25 µg/mL ([5]; Homo sapiens, 1b Experiment 1, LPS 0.5 μg/ml, compound 25.0 μg/ml): 84% | inhibition at 3.125 µg/mL ([5]; Homo sapiens, 1b Experiment 2, LPS 1 μg/ml, compound 3.125 μg/ml): 0% | inhibition at 6.25 µg/mL ([5]; Homo sapiens, 1b Experiment 2, LPS 1 μg/ml, compound 6.25 μg/ml, read-out: Intracellular % inhibition): 58% | inhibition at 12.5 µg/mL ([5]; Homo sapiens, 1b Experiment 2, LPS 1 μg/ml, compound 12.5 μg/ml, read-out: Intracellular % inhibition): 50% | inhibition at 3.125 µg/mL ([5]; Homo sapiens, 1b Experiment 3, LPS 1 μg/ml, compound 3.125 μg/ml): 83% | inhibition at 6.25 µg/mL ([5]; Homo sapiens, 1b Experiment 3, LPS 1 μg/ml, compound 6.25 μg/ml, read-out: Intracellular % inhibition): 88% | inhibition at 12.5 µg/mL ([5]; Homo sapiens, 1b Experiment 3, LPS 1 μg/ml, compound 12.5 μg/ml, read-out: Intracellular % inhibition): 90% | inhibition at 3.125 µg/mL ([5]; Homo sapiens, 1b Experiment 4, LPS 1 μg/ml, compound 3.125 μg/ml): 76% | inhibition at 6.25 µg/mL ([5]; Homo sapiens, 1b Experiment 4, LPS 1 μg/ml, compound 6.25 μg/ml, read-out: Intracellular % inhibition): 86% | inhibition at 12.5 µg/mL ([5]; Homo sapiens, 1b Experiment 4, LPS 1 μg/ml, compound 12.5 μg/ml, read-out: Intracellular % inhibition): 88% | inhibition at 3.125 µg/mL ([6]; 1b Experiment 2, LPS 1 μg/ml): 96% | inhibition at 6.25 µg/mL ([6]; 1b Experiment 2, LPS 1 μg/ml): 94% | inhibition at 12.5 µg/mL ([6]; 1b Experiment 2, LPS 1 μg/ml): 94% | inhibition at 3.125 µg/mL ([6]; 1b Experiment 3, LPS 1 μg/ml): 93% | inhibition at 6.25 µg/mL ([6]; 1b Experiment 3, LPS 1 μg/ml): 92% | inhibition at 12.5 µg/mL ([6]; 1b Experiment 3, LPS 1 μg/ml): 94% | inhibition at 3.125 µg/mL ([6]; 1b Experiment 4, LPS 1 μg/ml): 99% | inhibition at 6.25 µg/mL ([6]; 1b Experiment 4, LPS 1 μg/ml): 99% | inhibition at 12.5 µg/mL ([6]; 1b Experiment 4, LPS 1 μg/ml): 98% | growth of the strains of H. pylori (FIGS. 1 and 2) [2]: inhibited the growth of all the strains | No. strains inhibited/No. strains tested [2]: 20/20

From US20030065039A1, “Biologically active 1,3-bis-aromatic-prop-2-en-1-ones, 1,3-bis-aromatic-propan-1-ones, and 1,3-bis-aromatic-prop-2-yn-1-ones” (Statens Serum Institute, priority 1997, published 2003)
